Legend:
[1] = tested on: maximal electroshock seizure; test: Maximal Electroshock Seizure (MES) rat model; format: in vivo; details: po, 0.5 hour
Description: Male, Sprague-Dawley rats and CD-1 mice were used for all studies. All animals were allowed ad-lib access to food and water except during experiment. Animals were housed within an animal vivarium maintained under a 12 h light:dark cycle (lights on: 07:00 h), and all experiments were conducted in the animals light phase. For all experiments, animals were habituated to the vivarium for a minimum of 72 h before experimentation. The experimental procedures used in the present investigation were conducted under the Association for Assessment and Accreditation of Laboratory Animal Care (AAALAC) and the Canadian Council on Animal Care (CCAC) guidelines. All compounds were sonicated in 5% Tween 80® in saline or methylcellulose 0.5% (wgt/vol), using MC and sterile water and injected in a dose volume of 5 ml/kg or 10 ml/kg (rat), and 10 ml/kg (mouse). Drugs were administered by either the oral, intraperitoneal or intravenous route. Male Sprague-Dawley rats of body weight 80-100 g were used for these studies. Each experiment was conducted over 3 consecutive days. On day 1 and 2, each rat received a single electrical stimulus (150 mA, 0.2 s duration, 60 Hz) via corneal electrodes moistened with saline (Shock stimulator type 221: Harvard apparatus). […] Typically this reflected approximately 70-90% of the initial group. […] On the test day following a defined drug pretreatment period, rats received a maximal electroshock (150 mA, 0.2 s duration, 60 Hz) via corneal electrodes. Protection was defined as absence of a full tonic seizure within 10 s of stimulus delivery. Twenty minutes before the MES procedure, the animals were tested on a fixed speed rotorod (best score from 3 trials at 8 r.p.m, trial duration=60 s) to give an early assessment of drug effect on gross motor function.

gross motor function [2] = test: Fixed speed rotorod, rat (gross motor function); details: Sprague-Dawley, in vivo, po
Description: On the test day following a defined drug pretreatment period, rats received a maximal electroshock (150 mA, 0.2 s duration, 60 Hz) via corneal electrodes. Protection was defined as absence of a full tonic seizure within 10 s of stimulus delivery. Twenty minutes before the MES procedure, the animals were tested on a fixed speed rotorod (best score from 3 trials at 8 r.p.m, trial duration=60 s) to give an early assessment of drug effect on gross motor function.

6 Hz psychomotor seizure = test: Mouse 6 Hz model; format: in vivo; details: mice, ip, 0.5 hour, 32 mA
Description: Male, Sprague-Dawley rats and CD-1 mice were used for all studies. All animals were allowed ad-lib access to food and water except during experiment. Animals were housed within an animal vivarium maintained under a 12 h light:dark cycle (lights on: 07:00 h), and all experiments were conducted in the animals light phase. For all experiments, animals were habituated to the vivarium for a minimum of 72 h before experimentation. The experimental procedures used in the present investigation were conducted under the Association for Assessment and Accreditation of Laboratory Animal Care (AAALAC) and the Canadian Council on Animal Care (CCAC) guidelines. All compounds were sonicated in 5% Tween 80® in saline or methylcellulose 0.5% (wgt/vol), using MC and sterile water and injected in a dose volume of 5 ml/kg or 10 ml/kg (rat), and 10 ml/kg (mouse). Drugs were administered by either the oral, intraperitoneal or intravenous route. […] Preliminary experiments established that these stimulus parameters elicited a psychomotor seizure, defined as the expression of at least one of the following behaviors: stun/immobility, forelimb clonus, straub tail, vibrissae tremor, lateral head movement in >95% of control animals. Protection was defined as complete absence of all the above behaviors within 20 s of stimulus delivery. The effective dose of compound necessary to protect against psychomotor seizures to 50% of controls (i.e. ED50) was determined by curve fitting program (Prism v.4.02).

gross motor function [3] = test: Rotorod, mouse (Table 8); details: in vivo, po, Table 8, mouse

Row | Structure (SMILES) | ED50 [1] | ED50 at 0.5 hour (gross motor function [2]) | ED50 (6 Hz psychomotor seizure) | ED50 at 0.5 hour (gross motor function [3])
1 | C[C@@H](Oc1cc(Cl)cc(C(F)(F)F)c1)C(N)=O [I(D), (2R)-2-[3-chloro-5-(trifluoromethyl)-phenoxy]propanamide] | 22.7 mg/kg | > 500 mg/kg | 48.5 ± 1 mg/kg | > 170 mg/kg
2 | NC(=O)COc1cc(C(F)(F)F)cc(C(F)(F)F)c1 [I(F), 2-[3,5 bis(trifluoromethyl)-phenoxy]acetamide;] | 18.4 mg/kg | > 500 mg/kg | 38.5 ± 1 mg/kg | > 130 mg/kg
